Data published in ChEMBL document CHEMBL4342480, “Design of Dual Inhibitors of Soluble Epoxide Hydrolase and LTA4 Hydrolase” (ACS Med Chem Lett, 2020).

Legend:
[1] = biological target: T1, Leukotriene A-4 hydrolase (Homo sapiens, UniProt P09960); experiment: Inhibition of (His)6 tagged human recombinant LTA4H expressed in Escherichia coli BL21(DE3) using non-fluorescent L-arginine-7-amino-4-methylcoumarine as substrate preincubated for 30 mins followed by substrate addition and measured for 30 mins by fluorescence based assay
T1 sequence (P09960 whole entry): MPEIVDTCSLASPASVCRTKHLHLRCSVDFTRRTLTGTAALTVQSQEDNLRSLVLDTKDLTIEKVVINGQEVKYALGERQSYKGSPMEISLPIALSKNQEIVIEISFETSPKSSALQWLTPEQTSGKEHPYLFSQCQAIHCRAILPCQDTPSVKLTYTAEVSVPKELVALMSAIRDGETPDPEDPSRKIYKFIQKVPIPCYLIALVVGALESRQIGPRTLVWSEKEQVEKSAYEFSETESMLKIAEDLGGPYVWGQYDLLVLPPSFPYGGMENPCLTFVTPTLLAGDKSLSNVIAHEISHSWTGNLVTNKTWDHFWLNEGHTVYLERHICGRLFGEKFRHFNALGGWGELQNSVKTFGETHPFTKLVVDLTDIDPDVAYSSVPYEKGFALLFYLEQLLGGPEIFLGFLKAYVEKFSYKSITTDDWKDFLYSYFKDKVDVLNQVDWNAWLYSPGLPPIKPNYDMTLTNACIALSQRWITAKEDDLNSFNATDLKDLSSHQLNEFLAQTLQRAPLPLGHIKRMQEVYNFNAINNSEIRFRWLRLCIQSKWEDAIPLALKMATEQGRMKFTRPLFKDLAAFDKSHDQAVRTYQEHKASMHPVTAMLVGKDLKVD

Macrophage [2] = experiment: Antiinflammatory activity in Escherichia coli O6:K2:H1-induced human M2 macrophage assessed as change in 15-HETE level at 1 uM preincubated for 10 mins followed by Escherichia coli O6:K2:H1-stimulation and measured after 180 mins by UPLC-MS/MS analysis relative to control; format: functional
Macrophage [3] = experiment: Antiinflammatory activity in Escherichia coli O6:K2:H1-induced human M1 macrophage assessed as change in 5-HETE level at 1 uM preincubated for 10 mins followed by Escherichia coli O6:K2:H1-stimulation and measured after 180 mins by UPLC-MS/MS analysis relative to control; format: functional
Macrophage [4] = experiment: Antiinflammatory activity in Escherichia coli O6:K2:H1-induced human M2 macrophage assessed as change in 17-HDHA level at 10 uM preincubated for 10 mins followed by Escherichia coli O6:K2:H1-stimulation and measured after 180 mins by UPLC-MS/MS analysis relative to control; format: functional
Macrophage [5] = experiment: Antiinflammatory activity in Escherichia coli O6:K2:H1-induced human M2 macrophage assessed as change in 14-HDHA level at 10 uM preincubated for 10 mins followed by Escherichia coli O6:K2:H1-stimulation and measured after 180 mins by UPLC-MS/MS analysis relative to control; format: functional
Macrophage [6] = experiment: Antiinflammatory activity in Escherichia coli O6:K2:H1-induced human M2 macrophage assessed as change in 5-HETE level at 10 uM preincubated for 10 mins followed by Escherichia coli O6:K2:H1-stimulation and measured after 180 mins by UPLC-MS/MS analysis relative to control; format: functional
Macrophage [7] = experiment: Antiinflammatory activity in Escherichia coli O6:K2:H1-induced human M1 macrophage assessed as change in 14-HDHA level at 10 uM preincubated for 10 mins followed by Escherichia coli O6:K2:H1-stimulation and measured after 180 mins by UPLC-MS/MS analysis relative to control; format: functional
Macrophage [8] = experiment: Antiinflammatory activity in Escherichia coli O6:K2:H1-induced human M1 macrophage assessed as change in LTB4 level at 10 uM preincubated for 10 mins followed by Escherichia coli O6:K2:H1-stimulation and measured after 180 mins by UPLC-MS/MS analysis relative to control; format: functional
Macrophage [9] = experiment: Antiinflammatory activity in Escherichia coli O6:K2:H1-induced human M2 macrophage assessed as change in PGD2 level at 1 uM preincubated for 10 mins followed by Escherichia coli O6:K2:H1-stimulation and measured after 180 mins by UPLC-MS/MS analysis relative to control; format: functional
Macrophage [10] = experiment: Antiinflammatory activity in Escherichia coli O6:K2:H1-induced human M2 macrophage assessed as change in 7-HDHA level at 10 uM preincubated for 10 mins followed by Escherichia coli O6:K2:H1-stimulation and measured after 180 mins by UPLC-MS/MS analysis relative to control; format: functional
[11] = biological target: T2, Bifunctional epoxide hydrolase 2 (Homo sapiens, UniProt P34913); experiment: Inhibition of full length human soluble epoxide hydrolase (1 to 555 residues) expressed in Escherichia coli BL21(DE3) using non-fluorescent PHOME as substrate preincubated for 30 mins followed by substrate addition and measured for 30 mins by fluorescence based assay
T2 sequence (P34913 whole entry): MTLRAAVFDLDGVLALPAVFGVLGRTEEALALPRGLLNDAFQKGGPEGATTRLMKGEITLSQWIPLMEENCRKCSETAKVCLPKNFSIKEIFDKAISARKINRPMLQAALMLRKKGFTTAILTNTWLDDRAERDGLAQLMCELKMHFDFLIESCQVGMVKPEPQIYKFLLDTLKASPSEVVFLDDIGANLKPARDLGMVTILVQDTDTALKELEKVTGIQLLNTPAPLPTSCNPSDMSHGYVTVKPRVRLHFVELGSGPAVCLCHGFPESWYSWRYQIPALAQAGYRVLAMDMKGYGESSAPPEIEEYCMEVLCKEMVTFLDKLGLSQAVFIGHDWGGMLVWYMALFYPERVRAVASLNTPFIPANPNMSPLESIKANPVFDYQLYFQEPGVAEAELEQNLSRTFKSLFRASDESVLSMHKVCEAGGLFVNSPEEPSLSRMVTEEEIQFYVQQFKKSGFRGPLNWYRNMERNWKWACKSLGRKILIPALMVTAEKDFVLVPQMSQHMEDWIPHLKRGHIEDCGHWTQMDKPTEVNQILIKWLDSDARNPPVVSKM

Macrophage [12] = experiment: Antiinflammatory activity in Escherichia coli O6:K2:H1-induced human M1 macrophage assessed as change in 17-HDHA level at 1 uM preincubated for 10 mins followed by Escherichia coli O6:K2:H1-stimulation and measured after 180 mins by UPLC-MS/MS analysis relative to control; format: functional
Macrophage [13] = experiment: Antiinflammatory activity in Escherichia coli O6:K2:H1-induced human M1 macrophage assessed as change in total LTB4 level at 10 uM preincubated for 10 mins followed by Escherichia coli O6:K2:H1-stimulation and measured after 180 mins by UPLC-MS/MS analysis relative to control; format: functional
Macrophage [14] = experiment: Antiinflammatory activity in Escherichia coli O6:K2:H1-induced human M2 macrophage assessed as change in 17-HDHA level at 1 uM preincubated for 10 mins followed by Escherichia coli O6:K2:H1-stimulation and measured after 180 mins by UPLC-MS/MS analysis relative to control; format: functional
Macrophage [15] = experiment: Antiinflammatory activity in Escherichia coli O6:K2:H1-induced human M1 macrophage assessed as change in 4-HDHA level at 1 uM preincubated for 10 mins followed by Escherichia coli O6:K2:H1-stimulation and measured after 180 mins by UPLC-MS/MS analysis relative to control; format: functional

What does the source list for `O=C(Cc1ccc(Oc2nc3ccccc3s2)cc1F)NCCc1ccc(F)cc1`?
IC50 [1]: 200 nM; Activity (Macrophage [2]): 82%; Activity (Macrophage [3]): 164%; Activity (Macrophage [4]): 135%; Activity (Macrophage [5]): 106%; Activity (Macrophage [6]): 44%; Activity (Macrophage [7]): 114%; Activity (Macrophage [8]): 11%; Activity (Macrophage [9]): 63%; Activity (Macrophage [10]): 77%; IC50 [11]: 300 nM; Activity (Macrophage [12]): 97%; Activity (Macrophage [13]): 28%; Activity (Macrophage [14]): 106%; Activity (Macrophage [15]): 88%
